Paper PMC9787790, “Functional Characterization of Novel Bony Fish Lipoxygenase Isoforms and Their Possible Involvement in Inflammation” (International Journal of Molecular Sciences, 2022)

Experiments:
[1] = target: T1, ALOX-isoform of P. nyererei (putative ALOX15 ortholog) (Pundamilia nyererei, UniProt A0A3B4GKQ4); assay: lysate supernatant oxygenation assay, RP-HPLC / NP-HPLC of products; assay type: biochemical; conditions: 100 µM AA; 3 min; products after reduction 12-HETE (major) and 8-HETE
T1 construct: gene alox12; cell lysate supernatant used (activity lost on purification)
T1 sequence (A0A3B4GKQ4 1-670): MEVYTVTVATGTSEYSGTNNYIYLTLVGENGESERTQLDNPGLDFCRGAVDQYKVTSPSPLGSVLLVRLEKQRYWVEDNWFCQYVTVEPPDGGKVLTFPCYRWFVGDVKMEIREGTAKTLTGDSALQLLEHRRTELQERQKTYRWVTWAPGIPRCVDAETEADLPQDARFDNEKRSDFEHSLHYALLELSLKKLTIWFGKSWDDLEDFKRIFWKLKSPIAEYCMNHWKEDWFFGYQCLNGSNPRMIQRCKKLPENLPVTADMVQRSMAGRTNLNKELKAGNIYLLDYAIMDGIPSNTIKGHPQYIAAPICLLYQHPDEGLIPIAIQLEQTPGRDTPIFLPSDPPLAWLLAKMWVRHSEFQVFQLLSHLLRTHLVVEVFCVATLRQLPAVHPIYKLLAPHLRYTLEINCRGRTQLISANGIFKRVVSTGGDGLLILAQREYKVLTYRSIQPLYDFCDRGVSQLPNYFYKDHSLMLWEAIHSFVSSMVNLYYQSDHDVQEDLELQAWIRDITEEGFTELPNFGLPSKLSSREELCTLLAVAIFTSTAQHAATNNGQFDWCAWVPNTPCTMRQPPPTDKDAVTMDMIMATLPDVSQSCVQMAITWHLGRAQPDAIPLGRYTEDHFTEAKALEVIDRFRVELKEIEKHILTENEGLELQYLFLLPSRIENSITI

[2] = target: T2, ALOX-isoform of N. furzeri (putative ALOX15 ortholog) (Nothobranchius furzeri, UniProt A0A1A7ZHE9); assay: as above; assay type: biochemical; conditions: 100 µM AA; 3 min; products after reduction 12-HETE (major) and 8-HETE
T2 construct: gene ALOX12; cell lysate supernatant used (activity lost on purification)
T2 sequence (A0A1A7ZHE9 1-670): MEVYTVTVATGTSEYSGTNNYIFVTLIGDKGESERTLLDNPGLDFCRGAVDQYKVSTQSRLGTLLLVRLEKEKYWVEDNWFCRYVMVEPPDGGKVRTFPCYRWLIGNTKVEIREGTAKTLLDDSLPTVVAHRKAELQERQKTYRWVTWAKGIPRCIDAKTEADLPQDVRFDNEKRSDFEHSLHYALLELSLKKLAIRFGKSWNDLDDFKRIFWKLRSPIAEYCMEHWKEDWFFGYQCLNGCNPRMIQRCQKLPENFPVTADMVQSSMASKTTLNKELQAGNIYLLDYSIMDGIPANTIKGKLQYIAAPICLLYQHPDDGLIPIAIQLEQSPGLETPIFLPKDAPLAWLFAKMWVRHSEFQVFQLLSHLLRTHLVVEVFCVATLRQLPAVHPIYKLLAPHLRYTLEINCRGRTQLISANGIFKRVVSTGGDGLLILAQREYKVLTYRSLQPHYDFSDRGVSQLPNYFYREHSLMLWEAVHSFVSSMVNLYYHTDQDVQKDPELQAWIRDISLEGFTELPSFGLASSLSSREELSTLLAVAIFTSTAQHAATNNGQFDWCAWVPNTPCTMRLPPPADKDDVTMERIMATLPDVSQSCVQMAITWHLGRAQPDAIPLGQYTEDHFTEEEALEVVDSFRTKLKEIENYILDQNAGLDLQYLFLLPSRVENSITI

Structure (SMILES): CCCCC/C=C\C/C=C\C/C=C\C/C=C\CCCC(=O)O [AA, arachidonic acid]
- lysate supernatant oxygenation assay, RP-HPLC / NP-HPLC of products [1]: AA is oxygenated by the three bony fish ALOX-isoforms to a mixture of 12-HETE
- lysate supernatant oxygenation assay, RP-HPLC / NP-HPLC of products [2]: AA is oxygenated by the three bony fish ALOX-isoforms to a mixture of 12-HETE
